# In patent US4694006A, “Acyl- or acyloxymethyl-allopurinol prodrugs” (priority 1983, dated 1987):
# What was measured:
# [1] = Bioavailability following rectal administration to rabbits (suppositories, micro-enemas); settings: rabbit, in vivo, 25 mg
# Method: (§3) The suppositories or micro-enemas were administered to rabbits. After drug administration, blood samples were taken at various times and the plasma fraction assayed for allopurinol and its major metabolite oxipurinol using the HPLC method described above.
# rabbits [2] = assay: as above; settings: rabbits, rectal suppositories, 25 mg allopurinol equivalents, all three blood sampling times
# Method: as §3
# [3] = intravenous (Breithaupt & Tittel, 1982); cited from earlier work
# [4] = 25° C; cited from earlier work
# [5] = Comparative absorption study following peroral administration, urinary excretion; assay type: in vivo; settings: urine, po, human, dose corresponding to 100 mg allopurinol, read-out: total urinary excretion of allopurinol and oxipurinol
# Method: A comparative absorption study was also made of allopurinol and the above mentioned prodrug following peroral administration. […] The total urinary excretion of allopurinol and oxipurinol was measured and found to correspond to 67% of the dose given for the allopurinol tablet and 92% for the preparation containing the prodrug derivative.
# [6] = Between octanol and water
# Method: (§1) The water-solubility and lipophilicity of the allopurinol drugs
# (§2) The apparent partition coefficients (P) for some allopurinol derivatives and allopurinol were measured using the widely used 1-octanol-water system. Similarly, the solubility of the derivatives in water or aqueous buffer solutions was determined.
# rabbits [7] = assay: Intravenous administration to four rabbits, plasma levels; assay type: in vivo, rabbit; settings: i.v., 25 mg allopurinol equivalents, all blood sampling times
# man [8] = settings: cited from earlier work
# man [9] = settings: rectal, various suppository preparations; cited from earlier work
# [10] = Water-solubility of allopurinol and prodrugs; settings: water
# Method: as §1, §2
smiles,measurement,setting,value
"Oc1ncnc2[nH]ncc12 [Allopurinol, allopurinol]",Fa,[1],< 2%
same,plasma levels of allopurinol after rectal administration,rabbits [2],below 1 μg/ml
same,dose recovered in the urine as intact allopurinol,[3],12%
same,"dose recovered in the urine, total",[3],about 88%
same,solubility in water,[4],about 0.5 mg/ml
same,dose excreted,[5],67%
same,log P,[6],-0.55
same,plasma levels of allopurinol after intravenous administration,rabbits [7],below 1 μg/ml
same,absolute systemic bioavailability of oral tablets,"man [8]; man, oral tablets (Appelbaum et al., 1982)",about 70%
same,oral dose excreted in the stool unchanged,"man [8]; oral dose (Elion et al., 1966)",20-25%
same,amount absorbed from suppository preparations administered rectally,man [9],< 5%
same,solubility,[10],500 µg/mL
